The values that follow come from patent publication US6306432A, “High and low load formulations of IGF-I in multivesicular liposomes” (Chiron Corporation, priority 1997, dated 2001).

Where a SMILES comes first, the peptide text is derived from it.

Data set [1] can be described thus: Osmolarity of sucrose and glycylglycine solutions and of the first aqueous component. The format is physicochemical. From the text: Drug loading in MVLs is modulated by controlling the osmolarity of the first aqueous component used during manufacture of the MVLs. Osmolarity is the sum of the molar concentrations of solutes present in an aqueous solution. If the solute is present in a dissociated, ionized or aggregated form, osmolarity is defined as the sum of the molar concentrations of the dissociated, ionized or aggregated forms. The solutes that contribute to the osmolarity of an aqueous solution include the IGF-I, and osmotic excipients that are to be encapsulated during manufacture of MVLs. The contribution to the osmolarity of a solution made by any solute in the solution is approximately equivalent to the weight concentration of the solute in the solution (e.g., mg/mL) divided by its molecular weight. Thus, as a general principle, for a given weight concentration, the larger the molecular weight of a solute, the smaller the osmolarity of the solute, and the smaller the contribution of that solute to the overall osmolarity of the solution. It is also possible to reduce the osmolarity of the first aqueous component by reducing the concentration of the active agent. This method will lead to a lower loading of IGF-I if the concentration of other solutes in the first aqueous component remain constant.

Another data set relates to MG-63 cells. Description: Mitogenic bioassay, MG-63 cells, MTT stain. The format is cell-based, human. Conditions: standard control in mitogenic assay.
Data set [2] is described as follows: Solubility of IGF-I in aqueous solution versus pH. The format is physicochemical. The protocol:
Applicants have also discovered a second parameter that must be taken into consideration in determining the composition of the first aqueous component during manufacture of the IGF-I formulations of this invention. The concentration of IGF-I in solution in the first aqueous component during manufacture is directly proportional to the amount of IGF-I that can be loaded in any give formulation. […] Further studies have shown that up to about 300 mg/mL of IGF-I can be solubilized at a pH below 5. Thus, to obtain and maintain sufficient IGF-I in solution in the first aqueous solution, a buffer or acid is also added to it during manufacture to assure a high enough concentration of dissolved IGF-I in the first aqueous component to obtain a final MVL product containing the desired loading of the drug. For the low load formulations, the pH of the first aqueous component is generally adjusted to a value within the range of 1 to about 5, while for high load formulations the pH range is between 2 and 4.8.

The nature of data set [3]: In vivo pharmacokinetics, serum IGF-I after subcutaneous injection in rats, low load versus free IGF-I. Also noted: species or system rat. Particulars: 20 mg/kg s.c.
Protocol: In-vivo studies. The pharmacokinetic behavior of a low load MVL formulation containing IGF-I was compared to that of unencapsulated IGF-I after subcutaneous injections (lower back) in rats. 20 mg/kg doses of either free IGF-I or a MVL formulation or IGF-I prepared from a stock solution of 5 mg/ml IGF-I was injected into each rat, with 3 rats per group. Sera were collected at various times up to 8 days post injection, and assayed for IGF-I using an IGF-I ELISA kits (DSL-10-5600) (Diagnostic Systems Laboratories (DSL), Webster, Tex.) according to the manufacturer's instructions. The pharmacokinetic parameters were calculated using the WinNonlin program (Scientific Consulting Inc.) and a non-compartmental model.

For `NCC(=O)NCC(=O)O` [Glycylglycine, glycylglycine] (H-Gly-Gly-OH), the Osmolarity is on record as 38 mOsm in data set [1] (0.5 w/v %); 76 mOsm in data set [1] (1.0 w/v %); 114 mOsm in data set [1] (1.5 w/v %); 152 mOsm in data set [1] (2.0 w/v %); 189 mOsm in data set [1] (2.5 w/v %); 227 mOsm in data set [1] (3.0 w/v %). The Osmolarity in data set [1] (4.0 w/v %) is 303 mOsm; in data set [1] (5.0 w/v %) it was 379 mOsm; in data set [1] (6.0 w/v %) it was 455 mOsm; in data set [1] (7.0 w/v %), 530 mOsm; in data set [1] (8.0 w/v %), 606 mOsm.
As to `OC[C@H]1O[C@@](CO)(O[C@H]2O[C@H](CO)[C@@H](O)[C@H](O)[C@H]2O)[C@@H](O)[C@@H]1O` [sucrose], the Osmolarity is reported as 15 mOsm in data set [1] (0.5 w/v %); 30 mOsm in data set [1] (1.0 w/v %); 45 mOsm in data set [1] (1.5 w/v %); 60 mOsm in data set [1] (2.0 w/v %); 76 mOsm in data set [1] (2.5 w/v %); 91 mOsm in data set [1] (3.0 w/v %). For the same molecule, the Osmolarity in data set [1] (4.0 w/v %) is 123 mOsm; in data set [1] (5.0 w/v %) it was 156 mOsm; in data set [1] (6.0 w/v %), 190 mOsm; in data set [1] (7.0 w/v %), 225 mOsm; in data set [1] (8.0 w/v %) it was 261 mOsm.
Take Insulin-like Growth Factor I [IGF-I]: the results for the “Bioactivity of standard rhIGF-I” value in the data set with MG-63 cells (listed as recombinant human IGF-I) and in the data set on MG-63 cells (listed as rhIGF-I) were 1.3×10^3 international units (IU)/mL and ~ 1.3×10^3 international units (IU)/mL, respectively. For the same molecule, in data set [2] (at a pH of about 5), the “Solubility of IGF-I in aqueous solution” value is recorded as “drops precipitously at a pH of about 5”. Besides, the IGF-I solubilized result in data set [2] (pH below 5) is given as “up to 300 mg/mL”. Further, the “Time after which free IGF-I is cleared” value in data set [3] is “about 1 day”.
